Laboratory results taken from the supplement of paper PMC8671470.
Counter-ions that a name gives are not always drawn.

Columns and labels:
Assay in all cases: area under dose-response curve (viability, 1 nM-10 uM) (fraction (0-1)); higher = more sensitive
Settings in all cases: 72 h
[1] = test system: myeloid leukemia patient primary cells Pat.4
Description: (§1)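 AUC (0–1, higher = more sensitive) of the 5-point dose–response (1 nM–10 µM, 72 h, CellTiter-Glo) in primary AML/CML patient mononuclear cells. 0.030103 is the floor for inactive compounds.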

[2] = test system: myeloid leukemia patient primary cells Pat.9
Description: as §1

[3] = test system: myeloid leukemia patient primary cells Pat.11
Description: as §1

[4] = test system: myeloid leukemia patient primary cells Pat.6
Description: as §1

[5] = test system: myeloid leukemia patient primary cells Pat.14
Description: as §1

[6] = test system: myeloid leukemia patient primary cells Pat.8
Description: as §1

[7] = test system: myeloid leukemia patient primary cells Pat.13
Description: as §1

[8] = test system: myeloid leukemia patient primary cells Pat.3
Description: as §1

[9] = test system: myeloid leukemia patient primary cells Pat.2
Description: as §1

[10] = test system: myeloid leukemia patient primary cells Pat.10
Description: as §1

[11] = test system: myeloid leukemia patient primary cells Pat.15
Description: as §1

[12] = test system: myeloid leukemia patient primary cells Pat.1
Description: as §1

[13] = test system: myeloid leukemia patient primary cells Pat.7
Description: as §1

[14] = test system: myeloid leukemia patient primary cells Pat.5
Description: as §1

[15] = test system: myeloid leukemia patient primary cells Pat.12
Description: as §1

| SMILES | area under dose-response curve [1] | area under dose-response curve [2] | area under dose-response curve [3] | area under dose-response curve [4] | area under dose-response curve [5] | area under dose-response curve [6] | area under dose-response curve [7] | area under dose-response curve [8] | area under dose-response curve [9] | area under dose-response curve [10] | area under dose-response curve [11] | area under dose-response curve [12] | area under dose-response curve [13] | area under dose-response curve [14] | area under dose-response curve [15] |
| --- | --- | --- | --- | --- | --- | --- | --- | --- | --- | --- | --- | --- | --- | --- | --- |
| O=C(Cc1cccc(OC(F)(F)F)c1)Nc1ccc(CCCCc2nnc(NC(=O)Cc3ccccn3)s2)nn1 [CB-839] | < 0.0301 | 0.752 | < 0.0301 | < 0.0301 | 0.434 | < 0.0301 | < 0.0301 | 0.702 | < 0.0301 | 0.665 | 0.283 | < 0.0301 | 0.532 | < 0.0301 | < 0.0301 |
| O=C(/C=C/c1cccnc1)NCCCCC1CCN(C(=O)c2ccccc2)CC1 [Daporinad] | 0.947 | 0.995 | 0.849 | 0.609 | 0.977 | 0.823 | 0.754 | 0.995 | 0.754 | 0.956 | 0.792 | 0.616 | 0.995 | 0.995 | 0.772 |
| Nc1ccn([C@@H]2O[C@H](CO)[C@@H](O)C2(F)F)c(=O)n1 [Gemcitabine] | 0.155 | 0.956 | – | < 0.0301 | 0.131 | 0.0474 | 0.0519 | 0.782 | 0.0848 | 0.257 | 0.0872 | 0.0673 | 0.135 | 0.956 | < 0.0301 |
| Clc1cc(Cl)c(OCC#CI)cc1Cl [Haloprogin] | 0.323 | 0.505 | 0.166 | 0.238 | 0.427 | 0.175 | 0.152 | 0.388 | 0.209 | 0.411 | 0.183 | 0.258 | 0.356 | 0.677 | 0.204 |
| O=c1[nH]c(=O)n([C@H]2C[C@H](O)[C@@H](CO)O2)cc1I [Idoxuridine] | < 0.0301 | < 0.0301 | < 0.0301 | < 0.0301 | < 0.0301 | < 0.0301 | < 0.0301 | < 0.0301 | < 0.0301 | < 0.0301 | < 0.0301 | < 0.0301 | < 0.0301 | < 0.0301 | < 0.0301 |
| NS(=O)(=O)c1ccc(S(=O)(=O)Nc2cccc3c(Cl)c[nH]c23)cc1 [Indisulam] | 0.29 | 0.227 | – | – | – | 0.0654 | 0.167 | 0.137 | < 0.0301 | < 0.0301 | 0.0789 | 0.128 | 0.228 | 0.379 | < 0.0301 |
| Cc1nnc(-c2ccc(N3CCC(Oc4ccccc4C(F)(F)F)CC3)nn2)s1 [MF-438] | – | < 0.0301 | < 0.0301 | < 0.0301 | < 0.0301 | < 0.0301 | < 0.0301 | – | < 0.0301 | < 0.0301 | – | < 0.0301 | 0.128 | 0.232 | < 0.0301 |
| CCCCCCCCCCCCC/C=C/[C@@H](O)[C@H](CO)N(C)C [N,N-Dimethylsphingosine] | 0.153 | 0.516 | 0.0868 | 0.15 | 0.273 | 0.114 | 0.131 | 0.384 | 0.127 | 0.468 | 0.113 | 0.0643 | 0.335 | 0.664 | 0.0829 |
| Nc1nc(O)c2c(CCc3ccc(C(=O)N[C@@H](CCC(=O)O)C(=O)O)cc3)c[nH]c2n1 [Pemetrexed] | < 0.0301 | 0.0468 | < 0.0301 | < 0.0301 | < 0.0301 | < 0.0301 | < 0.0301 | 0.196 | < 0.0301 | < 0.0301 | < 0.0301 | < 0.0301 | < 0.0301 | 0.0877 | < 0.0301 |
| C=C1NC(=O)c2cc(CN(C)c3ccc(C(=O)N[C@@H](CCC(=O)O)C(=O)O)s3)ccc2N1 [Raltitrexed] | < 0.0301 | < 0.0301 | < 0.0301 | < 0.0301 | < 0.0301 | < 0.0301 | < 0.0301 | 0.324 | < 0.0301 | < 0.0301 | < 0.0301 | < 0.0301 | < 0.0301 | < 0.0301 | < 0.0301 |
| Fc1ccc(CNc2ncnc3ccc(F)cc23)cc1 [Spautin 1] | 0.0735 | 0.762 | – | 0.0755 | 0.141 | 0.0661 | 0.111 | – | – | 0.0351 | 0.12 | 0.0783 | 0.154 | 0.326 | < 0.0301 |
| O=C(Oc1cccc(F)c1OC(=O)c1cccc(O)c1)c1cccc(O)c1 [WZB117] | 0.0833 | 0.223 | 0.0511 | < 0.0301 | 0.107 | 0.211 | < 0.0301 | 0.162 | 0.0336 | 0.176 | – | 0.0346 | 0.119 | 0.748 | 0.0633 |
| CC(C)(Cc1ccccc1)NCC(O)c1ccc(O)c(NS(C)(=O)=O)c1 (stereo not drawn) [Zinterol hydrochloride] | < 0.0301 | < 0.0301 | < 0.0301 | < 0.0301 | < 0.0301 | < 0.0301 | < 0.0301 | – | < 0.0301 | < 0.0301 | < 0.0301 | < 0.0301 | < 0.0301 | < 0.0301 | < 0.0301 |
